Test results as given in article PMC8399847, “Hybrid Quinolinyl Phosphonates as Heterocyclic Carboxylate Isosteres: Synthesis and Biological Evaluation against Topoisomerase 1B (TOP1B)” (Pharmaceuticals, 2021).

Assays:
[1] = test system: leishmanial TOP1B (LTOP1B); test: LTOP1B relaxation activity assay; format: biochemical, Leishmania; conditions: 100 µM of compound, 1 min
Protocol: The inhibition of relaxation activity of LTOP1B by the compounds was tested at 100 µM. The reactions were performed for 1 min in the way described in the experimental protocols section. The percentage of inhibition was calculated by measuring the intensity of the band corresponding to the supercoiled DNA when the different DNA topoisomers were separated in an agarose gel.
Purification of leishmanial DNA topoisomerase 1B (LTOP1B) was carried out as reported previously. Shortly, LTOP1B was purified using the deficient in TOP1 activity yeast strain, EKY3 MAT α ura3–52 his3Δ20ting, from the union of the bicistronic expression vector pESC-URA to both subunits of LTOP1B. The yeast cells were grown in a yeast synthetic drop-out medium without uracil (Sigma) supplemented with 2% raffinose (w/v) to OD600: 0.8–1 and induced for 10 h with 2% galactose (w/v). After that, the cells were harvested, washed with cold TEEG buffer (50 mM Tris–HCl pH 7.4, 1 mM EDTA, 1 mM EGTA, 10% glycerol), resuspended in 15 mL of 1× TEEG buffer supplemented with 0.2 M KCl and a protease inhibitors cocktail (Thermo Scientific, Waltham, MA, USA) and lysed. Protein extract obtained was loaded on a 5 mL Heparin Sepharose column (GE Healthcare, MA, USA). LTOP1B enzyme was eluted at 4 °C with a discontinuous gradient of KCl (0.2, 0.4, 0.6 M) in TEEG buffer.
Leishmanial TOP1B activity was tested by the relaxation of supercoiled plasmid DNA assay. Each reaction contained: one unit of purified LTOP1B enzyme, 100 µM of each compound, 0.5 μg of supercoiled pSK DNA, 10 mM Tris-HCl buffer pH 7.5, 5 mM MgCl2, 0.1 mM EDTA, 15 µg/mL bovine serum albumin, and 150 mM KCl. The final volume of each reaction was 20 µL. Reaction mixtures were incubated for 1 min at 37 °C and stopped by the addition of a 4 µL loading buffer (5% sarkosyl, 0.12% bromophenol blue, 25% glycerol). The DNA topoisomers were resolved in 1% agarose gels by electrophoresis in 0.1 M Tris borate EDTA buffer (pH 8.0) at 2 V/cm for 16 h and visualized with UV illumination after ethidium bromide (0.5 μg/mL) staining. The percentage of inhibition was calculated by measuring the intensity of the band corresponding to the supercoiled DNA after separating and staining the different DNA topoisomers. This analysis was performed using the GeneTools from Syngene software (Version 4.3.8, MD, USA).

[2] = test system: A549 (human lung adenocarcinoma cells); test: CCK-8 cytotoxicity assay, A549; format: cell-based; conditions: A549, 48 h, read-out: Cytotoxicity IC50 Lung A549
Protocol: (§1) The cytotoxicity of the newly synthesized quinolinylphosphonates 7 was evaluated in vitro by testing their antiproliferative activities against several human cancer cell lines: A549 (human lung adenocarcinoma cells), SKOV3 (human ovarian carcinoma), and HEK293 (human embryonic kidney). In order to analyze the selective cytotoxicity facing exclusively cancerous cell lines, cytotoxicity against non-cancerous cell lines (MRC-5, lung fibroblast cells) was also evaluated. Cell counting kit (CCK-8) assay was employed to assess growth inhibition and, cell proliferation inhibitory activities of compounds that are listed in Table 1 as IC50 values. […] According to the data presented in Table 1, in general, all these phosphorated derivatives present higher selective cytotoxicity in the A549 cell line than in the other two cell lines, SKOV3 and HEK293, although slight differences are observed compared to human ovarian carcinoma (SKOV3).
(§2) Cells were cultured according to the supplier’s instructions, A549 (ATCC® CCL-185), SKOV3 (ATCC® HTB-77), HEK293 (CLS GmbH), MRC-5 (ATCC® CCL-171™). Cells were seeded in 96-well plates at a density of 2–2.5 × 10^3 cells per well and incubated overnight in 0.1 mL of media supplied with 10% Fetal Bovine Serum (Lonza, Basel, Switzerland) in a 5% CO2 incubator at 37 °C. On day 2, drugs (concentration between 0.5–50 μM) were added and samples were incubated for 48 h. After treatment, 10 μL of cell counting kit-8 was added to each well for an additional 2 h incubation at 37 °C. The absorbance of each well was determined by an Automatic Elisa Reader System at 450 nm wavelength. CPT was purchased from Sigma-Aldrich and used as a positive control.

[3] = test system: SKOV3 (human ovarian carcinoma); test: CCK-8 cytotoxicity assay, SKOV3; format: cell-based; conditions: SK-OV-3, 48 h, read-out: Cytotoxicity IC50 Ovarian SKOV3
Protocol: as §1, §2

[4] = CCK-8 cytotoxicity assay, MRC-5 non-cancerous cells; format: cell-based; conditions: human, MRC-5 non-malignant lung fibroblasts
Protocol: as §1, §2

[5] = test system: L. infantum promastigotes; test: In vitro iRFP-L. infantum promastigotes viability assay; format: cell-based; conditions: Leishmania infantum; 96 h exposure, EC50 ± SD
Protocol: The effect of the new quinolinylphosphonate derivatives 7 synthesized was assessed on both free-living promastigotes and intramacrophage amastigotes of L. infantum as it is described in experimental protocols. Primary cultures of intramacrophage amastigotes were obtained from splenic explants from 6-weeks infected Balb/c mice with L. infantum-iRFP promastigotes. The infrared fluorescence emitted by both stage forms of the parasite was used as viability criterium, using 0.5% DMSO as negative control (100% viability) and […] AMB as a positive control (0% viability).
A genetically modified strain of L infantum BCN 150, expressing iRFP protein from Rhodopseudomonas palustris bacteriophytochrome (iRFP-L. infantum), was used to obtain the EC50 values of the different compounds against promastigotes, through the detection of the near-infrared radiation emitted by living parasites exposed to tested molecules. Thus, the viability of promastigotes was calculated after recording their fluorescence at 708 nm in an Odyssey (Li-Cor, NE, USA) infrared imaging.
iRFP-L. infantum promastigotes were cultured using M199 medium (Gibco, Thermo Fisher Scientific, MA, USA), supplemented with 25 mM 4-(2-hydroxyethyl)-1-piperazineethanesulfonic acid (HEPES) pH 6.9, […] hemin, 10 mM glutamine, 0.1 mM adenosine, 0.01 mM folic acid, 1× RPMI 1640 vitamin mix (Sigma, Darmstadt, Germany), 10% (v/v) heat-inactivated foetal bovine serum (Gibco, Thermo Fisher Scientific, MA, USA), 50 U/mL penicillin and 50 µg/mL streptomycin. The assay was carried out, seeding 1 × 10^6 cells/mL of iRFP-L. infantum promastigotes into 96-well optical bottom black plates (Thermo Scientific, MA, USA) along with different concentrations of compound to each well. The final concentration of DMSO, the solvent used to prepare the stock solutions of compounds, was never higher than 0.1%. All of the compounds’ concentrations and controls were assayed by triplicate.

| SMILES | melting point | LTOP1B Inhibition [1] | IC50 [2] | IC50 [3] | IC50 at 48 h [4] | EC50 [5] |
| --- | --- | --- | --- | --- | --- | --- |
| CCOP(=O)(OCC)c1cccc2c(-c3ccccc3)cc(-c3ccccc3)nc12 [7a, Diethyl (2,4-diphenylquinolin-8-yl)phosphonate] | 118 to 120 °C | 58.87% | 2.26 ± 0.59 µM | 9.3 ± 0.76 µM | > 50 µM | 0.91 ± 0.04 µM |
| CCOP(=O)(OCC)c1cccc2c(-c3ccccc3)cc(-c3ccc(F)cc3)nc12 [7b, Diethyl (4-Phenyl-2-(fluorophenyl)quinolin-8-il) phosphonate] | 116 to 118 °C | 24.43% | 2.16 ± 0.29 µM | 5.29 ± 1.42 µM | > 50 µM | 7.63 ± 0.76 µM |
| CCOP(=O)(OCC)c1cccc2c(-c3ccccc3)cc(-c3ccc(OC)cc3)nc12 [7c, Diethyl (2-(4-methoxyphenyl)-4-phenylquinolin-8-yl)phosphonate] | 120 to 122 °C | 45.45% | 12.6 ± 1.3 µM | 25 ± 3.6 µM | > 50 µM | 9.46 ± 1.67 µM |
| CCOP(=O)(OCC)c1cccc2c(-c3ccccc3)cc(-c3ccccc3OC)nc12 [7d, Diethyl (2-(2-methoxyphenyl)-4-phenylquinolin-8-yl)phosphonate] | 121 to 123 °C | 46.41% | 12.3 ± 4.1 µM | 19.4 ± 1.6 µM | > 50 µM | 11.4 ± 0.62 µM |
| CCOP(=O)(OCC)c1cccc2c(-c3ccccc3)cc(-c3ccc4ccccc4c3)nc12 [7e, Diethyl (2-(naphthalen-2-yl)-4-phenylquinolin-8-yl)phosphonate] | 135 to 137 °C | 18.36% | 3.18 ± 0.27 µM | 1.33 ± 0.76 µM | > 50 µM | 20.4 ± 1.57 µM |
| CCOP(=O)(OCC)c1cccc2c(-c3ccccc3)cc(-c3cccc4ccccc34)nc12 [7f, Diethyl (2-(naphthalen-1-yl)-4-phenylquinolin-8-yl)phosphonate] | 140 to 142 °C | 7.5% | 2.66 ± 0.16 µM | 4.54 ± 0.52 µM | > 50 µM | 20.6 ± 2.19 µM |
| CCOP(=O)(OCC)c1cccc2c(-c3ccc(F)cc3)cc(-c3ccccc3)nc12 [7g] | 172 to 174 °C | 16.49% | 2.27 ± 0.32 µM | 9.29 ± 1.79 µM | > 50 µM | 16.1 ± 1.94 µM |
| CCOP(=O)(OCC)c1cccc2c(-c3ccc(F)cc3)cc(-c3ccc(F)cc3)nc12 [7h, Diethyl (2,4-bis(4-fluorophenyl)quinolin-8-yl)phosphonate] | 121 to 123 °C | 22.44% | 3.07 ± 0.22 µM | 9.79 ± 0.59 µM | > 50 µM | 8.43 ± 0.92 µM |
| CCOP(=O)(OCC)c1cccc2c(-c3ccc(F)cc3)cc(-c3ccc(F)c(F)c3)nc12 [7i, Diethyl (2-(3,4-difluorophenyl)-4-(4-fluorophenyl)quinolin-8-yl)phosphonate] | 159 to 161 °C | 54.01% | 4.64 ± 0.3 µM | 37.6 ± 9.1 µM | > 50 µM | 6.35 ± 0.16 µM |
| CCOP(=O)(OCC)c1cccc2c(-c3ccc(C)cc3)cc(-c3ccc(F)cc3)nc12 [7j, Diethyl (2-(4-fluorophenyl)-4-(p-tolyl)quinolin-8-yl)phosphonate] | 139 to 141 °C | 41.21% | 0.83 ± 0.01 µM | 10.2 ± 0.38 µM | > 50 µM | 7.29 ± 0.94 µM |
| CCOP(=O)(OCC)c1cccc2c(-c3ccc(C)cc3)cc(-c3ccc(F)c(F)c3)nc12 [7k, Diethyl (2-(3,4-difluorophenyl)-4-(p-tolyl)quinolin-8-yl)phosphonate] | 133 to 135 °C | 77.02% | 2.72 ± 0.37 µM | 10.6 ± 1.13 µM | > 50 µM | 2.59 ± 0.48 µM |
| CC(C)OP(=O)(OC(C)C)c1cccc2c(-c3ccccc3)cc(-c3ccc(F)cc3)nc12 [7l, Diisopropyl (2-(4-fluorophenyl)-4-phenylquinolin-8-yl)phosphonate] | 107 to 109 °C | 3.55% | 5.01 ± 2.7 µM | 18.7 ± 1.98 µM | > 50 µM | 9.57 ± 0.4 µM |
| CC(C)OP(=O)(OC(C)C)c1cccc2c(-c3ccccc3)cc(-c3ccc(F)c(F)c3)nc12 [7m, Diisopropyl (2-(3,4-difluorophenyl)-4-phenylquinolin-8-yl)phosphonate] | 127 to 129 °C | 5.41% | 18.4 ± 1.4 µM | 12.1 ± 1.7 µM | > 50 µM | 11.2 ± 0.74 µM |
